Values joined by “and” are separate entries in the source; they are usually repeats but may differ in a detail not shown here. Equal entries are not always repeated.
Key:
Type in all cases: in vivo, human
[1] = tested on: patients with non-alcoholic fatty liver disease; test: NAFLD patients: BMI, liver parameters (GGT, AST, ALT) and liver ultrasound grade, intravenous vs oral UDCA; design: GGT / AST / ALT: unit not given here; conditions: n = 50; for Liver Ultrasound - G: echographic fatty liver grade 0-3; for BMI / ALT / AST / GGT: mean±SD
Description: Two groups of patients (each group consisting of 50 patients N=50 as disclosed in Table -1) with non-alcoholic fatty liver disease are taken and standardized with the diet of 1300 calories/day (30% proteins, 30% carbohydrates and 40% fat). The first group of patients was treated with 50 mg/kg/day UDCA orally for first two months (500 mg capsules swallowed after meals on average of 2-3 capsules after breakfast, 3-4 capsules after lunch and 3-4 capsules after dinner). The second group of patients was treated with intravenous schedule of UDCA at a dose of 3500 mg each other day (every 48 hours) for a total of 24 intravenous sessions. The lab examinations were performed at time T0 (beginning of the study) and time T1 (end of second month treatment). Each patient of the two groups was submitted to standard echo graphic classification as follows: • Grade 0: No fatty liver • Grade 1 (Mild): Mild diffuse increase in the echogenicity of liver parenchyma or increased hepatorenal contrast with normal diaphragm and intrahepatic vessel borders. • Grade 2 (Moderate): Moderate diffuse increase in the echogenicity of liver parenchyma and increased hepatorenal contrast with slight impairment of diaphragm and intrahepatic vessel borders. • Grade 3 (Severe): In addition to moderate steatosis there was no visualization of posterior portion of the right lobe of liver, intrahepatic vessel borders and diaphragm. Values were presented as mean± standard deviation for quantitative variable and percentages for categorical variables. The two groups were compared by student’s t-test for quantitative variable and chi-square for the categorical variables. Changes from baseline to 12 weeks were compared by paired t-test within each group. Wilcoxon test was used for rating variable comparison before and after treatment in each group.

[2] = tested on: patients with non-alcoholic fatty liver disease; test: NAFLD patients: liver biopsy histology, histology activity index (HAI) score; design: scale not given here; conditions: individual patients 1-4
Text: A. Histology Examination: Only four patients in each group has accepted to undergo the liver biopsy (LB) before and after the treatment with intravenous UDCA and oral UDCA.

[3] = tested on: patients with non-alcoholic fatty liver disease; test: NAFLD patients: liver elastography (stiffness, kPa)
Text: B. Elastography in Liver: Ultrasound imaging plays a major role in the diagnosis, monitoring and therapeutic decisions of chronic liver diseases. It has many clinical indications: morphological examination of the liver parenchyma and assessment of the risk of chronic liver disease by investigating for signs of dysmorphism and/or portal hypertension; detecting and characterizing liver lesions; monitoring local treatments and assessment of treatment response. Different levels of fibrosis are assessed using a histological score. The most widely used is the METAVIR score, which incorporates five stages of fibrosis: • F0 (no fibrosis), • F1 (portal fibrosis without septa: minimal fibrosis), • F2 (portal fibrosis with a few septa: moderate fibrosis or clinically significant fibrosis), • F3 (septal fibrosis with many septa but no cirrhosis: severe fibrosis) and F4 (cirrhosis). Staging liver fibrosis in patients with chronic liver disease is essential for patient management as it allows: • 1) To identify the severity of the liver damage in order to decide whether or not to start treatment (chronic viral liver disease) to avoid progression to cirrhosis when the fibrosis becomes significant ( ≥F2); • 2) To assess the progression or regression of liver fibrosis during treatment; • 3) To institute specific monitoring to screen for and treat complications (HCC, Esophageal varices) in patients suffering from cirrhosis and even severe fibrosis ( ≥F3). Conventional ultrasound cannot differentiate accurately the different liver fibrosis stages. Existing tools to assess liver fibrosis include liver biopsy (LB), which is invasive, and other non-invasive methods. The main non-invasive method to assess liver fibrosis is based on a physical parameter that measures the tissue elasticity and is called Elastography. It can replace subjective palpation and is intended to image the mechanical properties of tissues and more particularly their stiffness. The Elastography methods are based on a common approach: measurement of deformation induced in a tissue by a force. This technique uses an external mechanical device or an internal acoustic radiation force (ARFI and SWE) to induce shear waves in the tissue to be explored. The diagnostic action mechanism is based on shear wave, which is generated by an external mechanical impulse and whose speed is measured by an ultrasound one-dimensional probe. The one-dimensional probe (3.5 MHz) is mounted along the axis of an electro-dynamic transducer (vibrator). In this way it is possible to define the liver stiffness by measuring the velocity of elastic shear waves in the liver parenchyma generated by the mechanical impulse. The propagation velocity is directly related to the stiffness of the medium, defined by the Young modulus. […] The elasticity is expressed in kPa (kilopascals) and is measured at depth ranging from 25 to 65 mm in a 1 x4 cm area: the assessed liver volume is therefore two hundred times greater than the volume examined in a liver biopsy (LB). The obtained values range from 2.5 kPa to 75 kPa. Mean liver elasticity in “normal” subject is 5.81±1.54 and 5.23±1.59 kPa respectively for men and women.

[4] = tested on: patients with non-alcoholic fatty liver disease; test: NAFLD patients: gastrointestinal side effects, oral vs intravenous UDCA
Description: The first group of patients was treated with 50 mg/kg/day UDCA orally for first two months (500 mg capsules swallowed after meals on average of 2-3 capsules after breakfast, 3-4 capsules after lunch and 3-4 capsules after dinner). The second group of patients was treated with intravenous schedule of UDCA at a dose of 3500 mg each other day (every 48 hours) for a total of 24 intravenous sessions. The lab examinations were performed at time T0 (beginning of the study) and time T1 (end of second month treatment). Each patient of the two groups was submitted to standard echo graphic classification as follows: • Grade 0: No fatty liver • Grade 1 (Mild): Mild diffuse increase in the echogenicity of liver parenchyma or increased hepatorenal contrast with normal diaphragm and intrahepatic vessel borders. • Grade 2 (Moderate): Moderate diffuse increase in the echogenicity of liver parenchyma and increased hepatorenal contrast with slight impairment of diaphragm and intrahepatic vessel borders. • Grade 3 (Severe): In addition to moderate steatosis there was no visualization of posterior portion of the right lobe of liver, intrahepatic vessel borders and diaphragm.

[5] = tested on: patients with biliary colicky pain due to radiolucent gallstones; test: Dissolution of gallbladder transparent stones and colicky pain, intravenous vs oral UDCA; conditions: for patients with gall stones dissolution by echographic evaluation: n = 10
Description: 20 patients were recruited aged 35 years to 65 years with sudden burst of biliary colicky pain due to radiolucent gallstones, diameter 0.3 to […] and altered liver enzymes. Some patients are also […] complaining of quite an intense pain with nausea and vomiting but without fever, negative inflammation markers (ESR, CRP) and slight leukocytosis, no rebound tenderness at the gallbladder manual exploration. […] were administered with 3500 mg of UDCA every 12 hours for 6 days from the cubital vein; the very first infusion at the admission was added with 20 mg hyoscine-N-butyl bromide and 75 mg diclofenac as the patients are distressed by excruciating pain.

[6] = intravenous, 3500 mg every 48 hours, 24 sessions, T0
[7] = intravenous, 3500 mg every 48 hours, 24 sessions, T1 (end of second month)
[8] = oral, 50 mg/kg/day for two months, T0
[9] = oral, 50 mg/kg/day for two months, T1 (end of second month)
[10] = oral, 50 mg/kg/day for two months
[11] = oral group, 0.7 g/kg oral UDCA for three months

C[C@H](CCC(=O)O)[C@H]1CC[C@H]2[C@@H]3[C@@H](O)C[C@@H]4C[C@H](O)CC[C@]4(C)[C@H]3CC[C@]12C [UDCA, ursodeoxycholic acid]
Liver Ultrasound - G [1, 6]: 3±2
Liver Ultrasound - G [1, 7]: 1±0
Liver Ultrasound - G [1, 8]: 3±2
Liver Ultrasound - G [1, 9]: 2±1
BMI ([1]; intravenous, 3500 mg every 48 hours, 24 sessions, T0 (beginning of the study)): 29.06±4.6 kg/m^2
ALT [1, 6]: 78.05±5.52
AST [1, 6]: 65.54±4.56
GGT [1, 6]: 19.52±5.82
ALT [1, 7]: 52.6±5.65
AST [1, 7]: 44.56±5.52
BMI [1, 7]: 26.25±6.2 kg/m^2
GGT [1, 7]: 16.77±7.76
BMI ([1]; oral, 50 mg/kg/day for two months, T0 (beginning of the study)): 28.18±3.8 kg/m^2
ALT [1, 8]: 76.48±4.95
AST [1, 8]: 63.25±5.43
GGT [1, 8]: 22.7±6.43
ALT [1, 9]: 74.32±5.58
AST [1, 9]: 59.43±3.39
BMI [1, 9]: 27.67±4.2 kg/m^2
GGT [1, 9]: 20.83±7.56
HAI score: Fibrosis ([2]; intravenous administration, T0): 3 (2×) and 4 (2×)
HAI score: Intralobular ([2]; intravenous administration, T0): 0
HAI score: Periportal +/- bridging ([2]; intravenous administration, T0): 3 and 2 and 1 (2×)
HAI score: Portal inflammation ([2]; intravenous administration, T0): 3 (2×) and 2 (2×)
HAI score: Fibrosis ([2]; intravenous administration, T1): 2 and 1 (3×)
HAI score: Intralobular ([2]; intravenous administration, T1): 0
HAI score: Periportal +/- bridging ([2]; intravenous administration, T1): 1 and 0 (3×)
HAI score: Portal inflammation ([2]; intravenous administration, T1): 1 and 0 (2×) and 2
HAI score: Fibrosis ([2]; oral administration, T0): 4 (3×) and 3
HAI score: Intralobular ([2]; oral administration, T0): 0
HAI score: Periportal +/- bridging ([2]; oral administration, T0): 1 (2×) and 3 and 2
HAI score: Portal inflammation ([2]; oral administration, T0): 3 (2×) and 2 (2×)
HAI score: Fibrosis ([2]; oral administration, T1): 3 (2×) and 2 (2×)
HAI score: Intralobular ([2]; oral administration, T1): 0
HAI score: Periportal +/- bridging ([2]; oral administration, T1): 1
HAI score: Portal inflammation ([2]; oral administration, T1): 2 (3×) and 1
liver stiffness by elastography (mean ± SD) ([3]; METAVIR score F ≥3, intravenous administration, T0): 20.2±5.7 kPa
liver stiffness by elastography (mean ± SD) ([3]; METAVIR score F ≥3, intravenous administration, T1): 9.9±5.6 kPa
liver stiffness by elastography (mean ± SD) ([3]; METAVIR score F ≥3, oral administration, T0): 19.9±7.1 kPa
liver stiffness by elastography (mean ± SD) ([3]; METAVIR score F ≥3, oral administration, T1): 12.5±6.9 kPa
liver stiffness by elastography (mean ± SD) ([3]; METAVIR score F ≥4, intravenous administration, T0): 25.3±6.5 kPa
liver stiffness by elastography (mean ± SD) ([3]; METAVIR score F ≥4, intravenous administration, T1): 18.5±5.9 kPa
liver stiffness by elastography (mean ± SD) ([3]; METAVIR score F ≥4, oral administration, T0): 23.6±6.8 kPa
liver stiffness by elastography (mean ± SD) ([3]; METAVIR score F ≥4, oral administration, T1): 19.7±5.8 kPa
local or systemic side effects during and after administration ([4]; intravenous, 3500 mg every 48 hours, 24 sessions): No local or systemic side effects were noted
tolerability and compliance ([4]; intravenous, compared with the capsules to be swallowed): tolerated and preferred in terms of compliance
bloating, share of the patients [4, 10]: 20%
colicky pain as side effect [4, 10]: moderate colicky pain
diarrhoea, share of the patients [4, 10]: 38%
nausea, share of the patients [4, 10]: 15%
reduced appetite, share of the patients [4, 10]: 10%
adverse effects of parenteral treatment ([5]; intravenous 3500 mg every 12 hours for 6 days, 20 patients, first week): no adverse effects
patients with gall stones dissolution by echographic evaluation ([5]; intravenous group, 3500 mg twice a week for 3 months): 7 patients
average stones volume reduction ([5]; oral UDCA group, the remaining patients): less than 30%
patients in whom colicky pain reappeared during the first 40 days [5, 11]: 4 patients out of 10
patients with gall stones dissolution by echographic evaluation [5, 11]: 3 patients
reduction of the sludging concretions and overall stones volume compared with pre-treatment imaging ([5]; parenteral group, the remaining 3 patients): more than 50%
